Assay results published in patent US20260297080A1, “BICYCLIC COMPOUNDS AS CDK INHIBITORS” (BeOne Medicines I GmbH, priority 2022, published 2026).

Tests used:
[1] = target: CDK2/Cyclin E1 (Homo sapiens, UniProt P24941); assay: CDK2/Cyclin E1 Biochemical Assay (TR-FRET), 1 mM ATP; details: 0.15 μM Rb (Ser780)-biotin substrate, pH7.0, 60 min preincubation, 90 min reaction, room temperature
Method: (§1) CDK2/Cyclin E1 and CDK1/Cyclin B1 Biochemical Assays
(§2) Compounds disclosed herein were tested for inhibition of CDK2/Cyclin E1 or CDK1/Cyclin B1 kinase in an assay based on the time-resolved fluorescence-resonance energy transfer (TR-FRET) methodology. The assay was carried out in 384-well low volume black plates in a reaction mixture containing CDK2/Cyclin E1 or CDK1/Cyclin B1, 1 mM ATP for CDK2/Cyclin E1 and CDK1/Cyclin B1, 0.15 μM Rb (Ser780)-biotin substrate and 0-10 μM compound in buffer containing 50 mM HEPES pH7.0, 0.02% NaN3, 0.01% BSA, 0.1 mM Orthovanadate, 50 mM MgCl2, 1 mM DTT and 0.005% Tween-20. The kinase was incubated with compound for 60 minutes at room temperature and the reaction was initiated by the addition of ATP and Rb (Ser780)-biotin substrate. After reaction at room temperature for 90 minutes, an equal volume of stop/detection solution was added according to the manufacture's instruction (Cisbio Bioassays). The stop/detection solution contained Streptavidin-XL665 and Anti-pRb (Ser780) mAb-Eu Cryptate in Detection buffer (Cisbio Bioassays). Plates were incubated at room temperature for 60 minutes, and the TR-FRET signals (ex337 nm, em665 nm/620 nm) were recorded on a PHERAstar FSX plate reader (BMG Labtech). The inhibition percentage of CDK2/Cyclin E1 or CDK1/Cyclin B1 kinase activity in presence of increasing concentrations of compounds was calculated based on the ratio of fluorescence at 665 nm to that at 620 nm. The IC50 for each compound was derived from fitting the data to the four-parameter logistic equation by Dotmatics.

[2] = target: CDK1/Cyclin B1 (Homo sapiens, UniProt P06493); assay: CDK1/Cyclin B1 Biochemical Assay (TR-FRET), 1 mM ATP; details: 0.15 μM Rb (Ser780)-biotin substrate, pH7.0, 60 min preincubation, 90 min reaction, room temperature
Method: as §1, §2

Sequence of CDK1/Cyclin B1 (P06493 whole entry): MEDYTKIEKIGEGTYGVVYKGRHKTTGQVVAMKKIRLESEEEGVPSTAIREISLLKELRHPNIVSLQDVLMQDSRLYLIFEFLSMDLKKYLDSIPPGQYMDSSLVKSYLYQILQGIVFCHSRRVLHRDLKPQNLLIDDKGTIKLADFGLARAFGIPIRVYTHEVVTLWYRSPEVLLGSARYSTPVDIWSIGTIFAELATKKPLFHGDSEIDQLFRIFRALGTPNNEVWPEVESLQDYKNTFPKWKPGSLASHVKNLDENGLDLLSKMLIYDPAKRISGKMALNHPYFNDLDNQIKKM
Sequence of CDK1/Cyclin B1 (P14635 whole entry partner): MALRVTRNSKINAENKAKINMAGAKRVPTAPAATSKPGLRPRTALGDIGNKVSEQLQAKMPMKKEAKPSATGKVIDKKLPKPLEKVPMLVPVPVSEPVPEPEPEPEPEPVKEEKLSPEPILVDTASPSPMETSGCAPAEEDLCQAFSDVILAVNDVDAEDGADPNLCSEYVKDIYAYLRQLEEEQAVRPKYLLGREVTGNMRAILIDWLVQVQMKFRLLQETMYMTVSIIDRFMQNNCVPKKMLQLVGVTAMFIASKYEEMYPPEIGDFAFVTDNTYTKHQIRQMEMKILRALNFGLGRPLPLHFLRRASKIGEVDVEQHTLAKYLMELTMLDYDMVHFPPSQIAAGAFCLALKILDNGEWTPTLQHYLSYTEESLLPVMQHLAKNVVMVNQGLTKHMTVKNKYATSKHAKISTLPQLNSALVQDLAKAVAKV

IC50 [1]	IC50 [2]	Compound
3.6 nM	1770 nM	CC(C)NC(=O)O[C@@H]1CC[C@H](c2cc(Nc3ccc4c(c3F)CCS(=O)(=O)N4)n[nH]2)C1 (single isomer, unassigned) [Example 430a]
0.8 nM	68 nM	CC1(NC(=O)O[C@H]2CC[C@@H](c3cc(Nc4ccc5c(c4F)CS(=O)(=O)N5)n[nH]3)C2)CCC1 (single isomer, unassigned) [Example 427b]
1.1 nM	65 nM	O=C(NC12CC(C1)C2)O[C@H]1CC[C@@H](c2cc(Nc3ccc4c(c3F)CS(=O)(=O)N4)n[nH]2)C1 (relative stereo) [Example 448, cis-3-(3-((4-fluoro-2,2-dioxido-1,3-dihydrobenzo[c]isothiazol-5-yl)amino)-1H-pyrazol-5-yl)cyclopentyl bicyclo[1.1.1]pentan-1-ylcarbamate]
0.9 nM	446 nM	CN1c2ccc(Nc3cc([C@@H]4CC[C@H](OC(=O)NC(C)(C)C)C4)[nH]n3)c(F)c2CS1(=O)=O (relative stereo) [Example 453, cis-3-(3-((4-fluoro-1-methyl-2,2-dioxido-1,3-dihydrobenzo[c]isothiazol-5-yl)amino)-1H-pyrazol-5-yl)cyclopentyl tert-butylcarbamate]
84 nM	> 10000 nM	CN1c2ccc(Nc3cc([C@@H]4CC[C@H](OC(=O)NCC(C)(C)O)C4)[nH]n3)c(F)c2CS1(=O)=O (single isomer, unassigned) [Example 330a, cis-3-(3-((4-fluoro-1-methyl-2,2-dioxido-1,3-dihydrobenzo[c]isothiazol-5-yl)amino)-1H-pyrazol-5-yl)cyclopentyl(2-hydroxy-2-methylpropyl)carbamate]
18 nM	3100 nM	CCCNC(=O)O[C@@H]1CC[C@H](c2cc(Nc3ccc4c(c3F)CS(=O)(=O)N4CC(C)(C)O)n[nH]2)C1 [Example 433a]
1.3 nM	423 nM	CC(C)(O)CN1c2ccc(Nc3cc([C@@H]4CC[C@H](OC(=O)NC5(C)CC5)C4)[nH]n3)c(F)c2CS1(=O)=O (relative stereo) [Example 435, cis-3-(3-((4-fluoro-1-(2-hydroxy-2-methylpropyl)-2,2-dioxido-1,3-dihydrobenzo[c]isothiazol-5-yl)amino)-1H-pyrazol-5-yl)cyclopentyl(1-methylcyclopropyl)carbamate]
1.5 nM	863 nM	CC(C)(CO)NC(=O)O[C@H]1CC[C@@H](c2cc(Nc3ccc4c(c3F)CS(=O)(=O)N4C3CC3)n[nH]2)C1 (single isomer, unassigned) [Example 363b, cis-3-(3-((1-cyclopropyl-4-fluoro-2,2-dioxido-1,3-dihydrobenzo[c]isothiazol-5-yl)amino)-1H-pyrazol-5-yl)cyclopentyl(1-hydroxy-2-methylpropan-2-yl)carbamate]
2.2 nM	784 nM	CC(C)NC(=O)O[C@H]1CC[C@@H](c2cc(Nc3ccc4c(c3F)CCS(=O)(=O)N4)n[nH]2)C1 (single isomer, unassigned) [Example 430b]

The next lines start with the compound.

Compound	IC50 [1]	IC50 [2]
CC(C)NC(=O)O[C@H]1CC[C@@H](c2cc(Nc3ccc4c(c3F)N(C)S(=O)(=O)N4)n[nH]2)C1 (relative stereo) [Example 466, cis-3-(3-((4-fluoro-3-methyl-2,2-dioxido-1,3-dihydrobenzo[c][1,2,5]thiadiazol-5-yl)amino)-1H-pyrazol-5-yl)cyclopentyl isopropylcarbamate]	63 nM	> 10000 nM
O=C(NC1CCOC1)O[C@H]1CC[C@@H](c2cc(Nc3ccc4c(c3)CS(=O)(=O)N4)n[nH]2)C1 (relative stereo) [Example 428, cis-3-(3-((2,2-dioxido-1,3-dihydrobenzo[c]isothiazol-5-yl)amino)-1H-pyrazol-5-yl)cyclopentyl(tetrahydrofuran-3-yl)carbamate]	21 nM	4850 nM
CC(C)(CO)NC(=O)O[C@H]1CC[C@@H](c2cc(Nc3ccc4c(c3F)CN(C3CC3)S4(=O)=O)n[nH]2)C1 (single isomer, unassigned) [Example 359b, cis-3-(3-((2-cyclopropyl-4-fluoro-1,1-dioxido-2,3-dihydrobenzo[d]isothiazol-5-yl)amino)-1H-pyrazol-5-yl)cyclopentyl(1-hydroxy-2-methylpropan-2-yl)carbamate]	7.1 nM	2890 nM
CC(C)NC(=O)O[C@H]1CC[C@@H](c2cc(Nc3ccc4c(c3F)CS(=O)(=O)N4CC(C)(C)O)n[nH]2)C1 (single isomer, unassigned) [Example 254b, cis-3-(3-((4-fluoro-1-(2-hydroxy-2-methylpropyl)-2,2-dioxido-1,3-dihydrobenzo[c]isothiazol-5-yl)amino)-1H-pyrazol-5-yl)cyclopentyl isopropylcarbamate]	8.9 nM	1380 nM
O=C(N[C@@H]1C[C@H]1O)O[C@H]1CC[C@@H](c2cc(Nc3ccc4c(c3F)CNS4(=O)=O)n[nH]2)C1 (relative stereo) [Example 442, cis-3-(3-((4-fluoro-1,1-dioxido-2,3-dihydrobenzo[d]isothiazol-5-yl)amino)-1H-pyrazol-5-yl)cyclopentyl((1R,2R)-2-hydroxycyclopropyl)carbamate]	55 nM	2990 nM
CC1(NC(=O)O[C@H]2CC[C@@H](c3cc(Nc4cc5c(cc4F)S(=O)(=O)NC5)n[nH]3)C2)CCC1 (relative stereo) [Example 445, cis-3-(3-((6-fluoro-1,1-dioxido-2,3-dihydrobenzo[d]isothiazol-5-yl)amino)-1H-pyrazol-5-yl)cyclopentyl(1-methylcyclobutyl)carbamate]	1.8 nM	1050 nM
CN1c2ccc(Nc3cc([C@@H]4CC[C@H](OC(=O)NCC(C)(C)O)C4)[nH]n3)c(F)c2CS1(=O)=O (single isomer, unassigned) [Example 330b, cis-3-(3-((4-fluoro-1-methyl-2,2-dioxido-1,3-dihydrobenzo[c]isothiazol-5-yl)amino)-1H-pyrazol-5-yl)cyclopentyl(2-hydroxy-2-methylpropyl)carbamate]	24 nM	4090 nM
CC(C)NC(=O)O[C@H]1CC[C@@H](c2cc(Nc3ccc4c(c3F)N(C)S(=O)(=O)N4C)n[nH]2)C1 (relative stereo) [Example 458, cis-3-(3-((4-fluoro-1,3-dimethyl-2,2-dioxido-1,3-dihydrobenzo[c][1,2,5]thiadiazol-5-yl)amino)-1H-pyrazol-5-yl)cyclopentyl isopropylcarbamate]	12 nM	3500 nM
